Tests used:
[1] = relative thermodynamic stability of crystalline forms; assay type: physicochemical
Description: The novel crystalline forms of Compound A or a salt thereof, especially the hemihydrates described herein, can be provided stably and constantly from the standpoint of the manufacturing process, and are useful in the treatment of cancer. […] The relative stability of the hemihydrates and monohydrate Form G at relative humidity higher than 93% has been difficult to establish, because the solubility of the three crystalline forms are very close (difference <1 mg/mL) and the conversion is very slow.

Weel kinase = Weel kinase (Homo sapiens, UniProt P30291); details: cited from earlier work
Sequence of Weel kinase (P30291 whole entry): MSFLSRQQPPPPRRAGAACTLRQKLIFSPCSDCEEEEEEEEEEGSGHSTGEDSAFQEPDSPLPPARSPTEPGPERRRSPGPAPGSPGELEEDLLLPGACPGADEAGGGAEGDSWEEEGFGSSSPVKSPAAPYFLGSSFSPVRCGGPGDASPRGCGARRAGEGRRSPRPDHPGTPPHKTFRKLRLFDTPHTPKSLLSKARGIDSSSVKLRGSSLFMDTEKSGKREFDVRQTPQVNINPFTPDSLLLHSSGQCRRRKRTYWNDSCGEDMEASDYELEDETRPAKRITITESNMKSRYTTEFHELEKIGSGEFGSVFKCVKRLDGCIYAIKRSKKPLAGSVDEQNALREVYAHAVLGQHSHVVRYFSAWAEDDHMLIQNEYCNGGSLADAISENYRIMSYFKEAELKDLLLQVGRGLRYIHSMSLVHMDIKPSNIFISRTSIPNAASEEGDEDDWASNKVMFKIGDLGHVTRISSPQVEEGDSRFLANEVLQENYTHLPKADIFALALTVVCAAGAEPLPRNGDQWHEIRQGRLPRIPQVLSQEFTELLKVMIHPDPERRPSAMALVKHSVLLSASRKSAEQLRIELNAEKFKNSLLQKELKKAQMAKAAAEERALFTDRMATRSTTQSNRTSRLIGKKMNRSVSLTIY

For `C=CCn1c(=O)c2cnc(Nc3ccc(N4CCN(C)CC4)cc3)nc2n1-c1cccc(C(C)(C)O)n1` [crystalline hemihydrate form I, 2-allyl-1-[6-(1-hydroxy-1-methylethyl)pyridin-2-yl]-6-{[4-(4-methylpiperazin-1-yl)phenyl]amino}-1,2-dihydro-3H-pyrazolo[3,4-d]pyrimidin-3-one], the “thermodynamic stability relative to other known forms” value ([1]; temperatures up to 44° C. and relative humidity range of 14-93%) was “more stable thermodynamically than other known forms”.

For `C=CCn1c(=O)c2cnc(Nc3ccc(N4CCN(C)CC4)cc3)nc2n1-c1cccc(C(C)(C)O)n1` [Compound A, 2-allyl-1-[6-(1-hydroxy-1-methylethyl)pyridin-2-yl]-6-{[4-(4-methylpiperazin-1-yl)phenyl]amino}-1,2-dihydro-3H-pyrazolo[3,4-d]pyrimidin-3-one], the “Weel kinase inhibitory effect” value (Weel kinase) is listed as “excellent Weel kinase inhibitory effect”.

For `C=CCn1c(=O)c2cnc(Nc3ccc(N4CCN(C)CC4)cc3)nc2n1-c1cccc(C(C)(C)O)n1` [crystalline hemihydrate form II, 2-allyl-1-[6-(1-hydroxy-1-methylethyl)pyridin-2-yl]-6-{[4-(4-methylpiperazin-1-yl)phenyl]amino}-1,2-dihydro-3H-pyrazolo[3,4-d]pyrimidin-3-one], the “thermodynamic stability relative to other known forms” value ([1]; temperatures equal or higher than 48° C. and relative humidity range of 19-93%) was “more stable thermodynamically than other known forms”.

— US8703779B2, “Preparation of crystalline forms of dihydropyrazolopyrimidinone” (Merck Sharp & Dohme Corp., priority 2009, dated 2014)
